# Article PMC5701053, “Multicomponent mapping of boron chemotypes furnishes selective enzyme inhibitors” (Nature Communications, 2017)
# How the values were obtained:
# [1] = target: T1, α/β-hydrolase domain 3 (ABHD3) (Homo sapiens, UniProt Q8WU67); assay: competitive gel-based ABPP (mouse brain proteome; follow-up in HEK […] lysates expressing ABHD3); format: cell-based
# T1 sequence (Q8WU67 1-409): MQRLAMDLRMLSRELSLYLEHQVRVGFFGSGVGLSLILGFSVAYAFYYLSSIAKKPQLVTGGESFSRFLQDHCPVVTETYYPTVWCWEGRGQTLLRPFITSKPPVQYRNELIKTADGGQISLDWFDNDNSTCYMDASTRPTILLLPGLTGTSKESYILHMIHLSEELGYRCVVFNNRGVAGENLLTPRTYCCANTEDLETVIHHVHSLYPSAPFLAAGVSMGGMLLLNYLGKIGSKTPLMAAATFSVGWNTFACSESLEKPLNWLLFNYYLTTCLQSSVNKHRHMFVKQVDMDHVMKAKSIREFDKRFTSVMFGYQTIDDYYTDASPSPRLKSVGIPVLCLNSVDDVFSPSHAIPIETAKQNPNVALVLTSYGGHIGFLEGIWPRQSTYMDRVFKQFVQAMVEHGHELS
# [2] = target: T1, α/β-hydrolase domain 3 (ABHD3); assay: competitive gel-based ABPP (FP-rhodamine) in HEK […] lysate overexpressing human ABHD3; also in situ (IC50 […]) and ABPP-SILAC in SW620 cells; format: biochemical
IC50 [2],SMILES,competitive gel-based ABPP (mouse brain proteome); follow-up in HEK 293T lysates [1]
,Cc1ccc(CN(C(=O)c2ccccc2)C(C#N)C[B-]23OC(=O)C[N+]2(C)CC(=O)O3)cc1 (stereo not drawn) [4g],"Compound 4j appears equipotent with compounds 4h and 4g against ABHD3, but is more selective against ABHD10."
,C[N+]12CC(=O)O[B-]1(CC(C#N)N(Cc1ccccc1Cl)C(=O)c1ccccc1)OC(=O)C2 (stereo not drawn) [4h],"Compound 4j appears equipotent with compounds 4h and 4g against ABHD3, but is more selective against ABHD10."
140 nM,C[N+]12CC(=O)O[B-]1(CC(C#N)N(Cc1ccc(F)cc1Cl)C(=O)c1ccccc1)OC(=O)C2 (racemic) [4j],
